Test systems include SK-OV-3 ovarian; U251 CNS; CCRF-CEM leukemia; COLO 205 colon; SK-MEL-5 melanoma; K-562 leukemia; SW-620 colon; NCI-H23 lung.
Common to all, as to test: growth of human tumour cells (NCI), 48 h

Eleven compounds from PubChem BioAssay (NCI) can be followed below.

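Dose response: 5 concentrations. Exposure: 48 h. Format: 96-well plates. Endpoint: linear interpolation; highest concentration if not reached. Abbreviation: GI50, concentration required for 50% inhibition of growth. TGI: concentration producing complete growth inhibition.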

For `CCC1CC(=O)N(SCC(N)C(=O)O)C1=O` (stereo not drawn), the TGI with SK-OV-3 ovarian, with U251 CNS, with CCRF-CEM leukemia, in the assay on COLO 205 colon, in the assay with SK-MEL-5 melanoma and in the assay on K-562 leukemia was over 100 µM throughout. Also, the TGI with SW-620 colon and in the assay on NCI-H23 lung was over 100 µM throughout.

`CC(=O)OC1CCC2(C)C(=CCC3C2CCC2(C)C(C(C)C(=O)O)CCC32)C1` (stereo not drawn): the TGI with SK-OV-3 ovarian, with U251 CNS, in the assay on CCRF-CEM leukemia, with COLO 205 colon, with SK-MEL-5 melanoma and in the assay with K-562 leukemia was over 100 µM each time. Moreover, the TGI in the assay with SW-620 colon and with NCI-H23 lung was over 100 µM each time.

Take `O=c1[nH]c(SCc2c(Cl)c(Cl)c(Cl)c(Cl)c2Cl)nc(=S)[nH]1`: the TGI in the assay with SK-OV-3 ovarian was over 100 µM; in the assay with U251 CNS it was over 100 µM; in the assay on CCRF-CEM leukemia it was 36.9 µM; in the assay on COLO 205 colon, 33.8 µM; in the assay with SK-MEL-5 melanoma, over 100 µM; with K-562 leukemia it was 45.9 µM. Also, the TGI with SW-620 colon and in the assay with NCI-H23 lung was over 100 µM throughout.

Turning to `O=C(O)CCCCn1cnc2c(=S)nc[nH]c21`, the TGI in the assay on SK-OV-3 ovarian, in the assay on U251 CNS, in the assay on CCRF-CEM leukemia, with COLO 205 colon, in the assay on SK-MEL-5 melanoma and in the assay with K-562 leukemia was over 100 µM in each case. The TGI in the assay with SW-620 colon and in the assay with NCI-H23 lung was over 100 µM each time.

With `C#CCNC(=O)CC[C@]1(C)[C@H]2CC[C@@H]3[C@@H]([C@@](C)(O)CCC=C(C)C)CC[C@@]3(C)[C@]2(C)CC[C@H]1C(=C)C`, the GI50 is over 100 µM in the assay with SK-OV-3 ovarian; 20.1 µM with U251 CNS; 6.77 µM in the assay with CCRF-CEM leukemia; 31.9 µM in the assay on COLO 205 colon; 38.8 µM with SK-MEL-5 melanoma; 17.8 µM with K-562 leukemia. The figures for the GI50 in the assay with SW-620 colon and in the assay on NCI-H23 lung were 29.4 µM and 27.7 µM, respectively. For the same compound, the TGI in the assay with SK-OV-3 ovarian is over 100 µM; in the assay on U251 CNS, 49.5 µM; in the assay with CCRF-CEM leukemia, 28.7 µM; in the assay with COLO 205 colon, over 100 µM; in the assay on SK-MEL-5 melanoma, over 100 µM; with K-562 leukemia it was 49.6 µM. In addition, the TGI in the assay on SW-620 colon and in the assay on NCI-H23 lung was over 100 µM in each case.

Regarding `COC(=O)[C@@]1(C)CC[C@]2(C)CC[C@]3(C)C4=CC=C5C(=CC(=O)C(O)=C5C)[C@]4(C)CC[C@@]3(C)[C@@H]2C1`, the GI50 with SK-OV-3 ovarian is 0.775 µM; with U251 CNS, 0.173 µM; with CCRF-CEM leukemia, 0.21 µM; in the assay on COLO 205 colon, 0.182 µM; in the assay on SK-MEL-5 melanoma, 0.2 µM; in the assay with K-562 leukemia, 0.251 µM. The GI50 in the assay on SW-620 colon was 0.165 µM; in the assay on NCI-H23 lung, 0.235 µM. For the same compound, the TGI with SK-OV-3 ovarian was found to be 2.01 µM; with U251 CNS, 0.321 µM; with CCRF-CEM leukemia, 0.745 µM; in the assay with COLO 205 colon it was 0.437 µM; in the assay with SK-MEL-5 melanoma it was 0.57 µM; in the assay with K-562 leukemia, 0.715 µM. In addition, the TGI in the assay with SW-620 colon amounted to 0.414 µM; with NCI-H23 lung it was 0.637 µM.

In the case of `O=C(NNC(=O)c1ccncc1)c1ccncc1`, the TGI in the assay with SK-OV-3 ovarian, with U251 CNS, in the assay with CCRF-CEM leukemia, with COLO 205 colon, in the assay on SK-MEL-5 melanoma and in the assay on K-562 leukemia was over 100 µM in each case. In addition, the TGI in the assay with SW-620 colon and with NCI-H23 lung was over 100 µM throughout.

Consider `C=C1C(=O)O[C@@H]2C[C@@H]1CC[C@@]1(C)O[C@@H]1CC[C@@]1(C)O[C@@H]1CC[C@@]2(C)O`, for which the GI50 was 30.6 µM with SK-OV-3 ovarian; 16.1 µM with U251 CNS; 28.1 µM in the assay on CCRF-CEM leukemia; 14.4 µM in the assay on COLO 205 colon; 16.2 µM in the assay with SK-MEL-5 melanoma; over 100 µM in the assay on K-562 leukemia. The results for the GI50 in the assay on SW-620 colon and with NCI-H23 lung were 14.1 µM and 1.58 µM, respectively. The TGI in the assay on SK-OV-3 ovarian is over 100 µM; in the assay with U251 CNS, 36.1 µM; in the assay on CCRF-CEM leukemia it was over 100 µM; in the assay on COLO 205 colon, 31 µM; with SK-MEL-5 melanoma, 31.4 µM; in the assay on K-562 leukemia, over 100 µM. Moreover, the TGI with SW-620 colon was determined as 42.2 µM; in the assay with NCI-H23 lung, 3.14 µM.

For the compound `CC[CH2][Sn]([Cl])([Cl])[CH2]CC`, the GI50 in the assay with SK-OV-3 ovarian was 25.7 µM; in the assay with U251 CNS, 3.9 µM; in the assay with CCRF-CEM leukemia, 1.24 µM; in the assay on COLO 205 colon it was 8.53 µM; in the assay with SK-MEL-5 melanoma, 10.6 µM; in the assay on K-562 leukemia, 3.33 µM. Besides, the GI50 in the assay on SW-620 colon is 2.61 µM; in the assay with NCI-H23 lung, 9.13 µM. Also, the TGI in the assay with SK-OV-3 ovarian was 70.8 µM; in the assay on U251 CNS, 16.5 µM; with CCRF-CEM leukemia, over 100 µM; in the assay with COLO 205 colon, 22.5 µM; in the assay on SK-MEL-5 melanoma, 22.6 µM; in the assay on K-562 leukemia, over 100 µM. The TGI in the assay with SW-620 colon turned out to be 11.5 µM; with NCI-H23 lung, 22 µM.

With `CC(=O)OC(C)(C)N=Nc1ccc(Br)cc1`, the TGI is over 100 µM with SK-OV-3 ovarian; over 100 µM in the assay on U251 CNS; over 78.5 µM in the assay with CCRF-CEM leukemia; 1.03 µM with COLO 205 colon; 6.26 µM in the assay on SK-MEL-5 melanoma; 21.4 µM in the assay with K-562 leukemia. The TGI in the assay on SW-620 colon and with NCI-H23 lung was over 100 µM in each case.

Turning to `CCOC(=O)C1=C(C)NC2SC(=O)/C(=C\c3ccccc3)N2C1c1ccccc1` (stereo not drawn), the GI50 in the assay with SK-OV-3 ovarian was over 100 µM; in the assay on U251 CNS, over 100 µM; in the assay with CCRF-CEM leukemia it was 14.8 µM; in the assay with COLO 205 colon it was over 100 µM; with SK-MEL-5 melanoma, 16.1 µM; with K-562 leukemia it was 51.8 µM. Besides, the GI50 in the assay with SW-620 colon and in the assay on NCI-H23 lung was over 100 µM in each case. Further, the TGI in the assay with SK-OV-3 ovarian, in the assay on U251 CNS, with CCRF-CEM leukemia, in the assay with COLO 205 colon, in the assay on SK-MEL-5 melanoma and in the assay with K-562 leukemia was over 100 µM throughout. For the same compound, the TGI with SW-620 colon and with NCI-H23 lung was over 100 µM in each case.
